In US7119221B2, “Cycloalkyl-hydroxyl compounds and compositions for cholesterol management and related uses” (Esperion Therapeutics, Inc., priority 2003, dated 2006):

Columns and labels:
primary rat hepatocytes = assay: Inhibition of lipid synthesis ([1-14C]-acetate incorporation) in primary cultures of rat hepatocytes; format: cell-based; details: Hepatocyte, 4 hour incubation with [1-14C]-acetate, 0-300 μM compound
Protocol: Compounds were tested for inhibition of lipid synthesis in primary cultures of rat hepatocytes. Male Sprague-Dawley rats were anesthetized with intraperitoneal injection of sodium pentobarbital (80 mg/kg). Rat hepatocytes were isolated essentially as described by the method of Seglen (Seglen, P. O. Hepatocyte suspensions and cultures as tools in experimental carcinogenesis. J. Toxicol. Environ. Health 1979, 5, 551–560). Hepatocytes were suspended in Dulbecco's Modified Eagles Medium containing 25 mM D-glucose, 14 mM HEPES, 5 mM L-glutamine, 5 mM leucine, 5 mM alanine, 10 mM lactate, 1 mM pyruvate, 0.2% bovine serum albumin, 17.4 mM non-essential amino acids, 20% fetal bovine serum, 100 nM insulin and 20 μg/mL gentamycin) and plated at a density of 1.5×10^5 cells/cm^2 on collagen-coated 96-well plates. Four hours after plating, media was replaced with the same media without serum. Cells were grown overnight to allow formation of monolayer cultures. Lipid synthesis incubation conditions were initially assessed to ensure the linearity of [1-^14C]-acetate incorporation into hepatocyte lipids for up to 4 hours. Hepatocyte lipid synthesis inhibitory activity was assessed during incubations in the presence of 0.25 μCi [1-^14C]-acetate/well (final radiospecific activity in assay is 1 Ci/mol) and 0, 1, 3, 10, 30, 100 or 300 μM of compounds for 4 hours. At the end of the 4-hour incubation period, medium was discarded and cells were washed twice with ice-cold phosphate buffered saline and stored frozen prior to analysis. To determine total lipid synthesis, 170 μl of MicroScint-E® and 50 μl water was added to each well to extract and partition the lipid soluble products to the upper organic phase containing the scintillant. Lipid radioactivity was assessed by scintillation spectroscopy in a Packard TopCount NXT.

obese female Zucker rats = assay: Oral daily treatment of chow fed obese female Zucker rats for fourteen days: serum lipids, glycemic control indicators, body weight; format: in vivo, rat; details: oral gavage, 14 days; for % wt. gain: obese female Zucker rats; for Glucose, Percent of Pre-treatment: blood glucose after 6 hour fast; for HDL-C, Percent of Pre-treatment / Insulin, Percent of Pre-treatment / Non-HDL-C, Percent of Pre-treatment: serum; for BHA, Percent of Pre-treatment: serum beta-hydroxy butyric acid; for NEFA, Percent of Pre-treatment: serum non-esterified fatty acids; for HDL-C/non-HDL-C: serum ratio; for TC, Percent of Pre-treatment: serum total cholesterol; for TG, Percent of Pre-treatment: serum triglycerides
Protocol: In a number of different experiments, illustrative compounds of the invention are administered daily at a dose of up to 100 mg/kg to chow fed obese female Zucker rats for fourteen days in the morning by oral gavage in 1.5% carboxymethylcellulose/0.2% Tween 20 or 20% ethanol/80% polyethylene glycol (dosing vehicles). Animals are weighed daily. Animals are allowed free access to rodent chow and water throughout the study except on days of blood sampling where food is restricted for six hours prior to blood sampling. Blood glucose is determined after the 6 hour fast in the afternoon without anesthesia from a tail vein. Serum is also prepared from pretreatment blood samples subsequently obtained from the orbital venous plexus (with O2/CO2 anesthesia) and following the fourteenth dose at sacrifice from the heart following O2/CO2 anesthesia. Serums are assayed for lipoprotein cholesterol profiles, triglycerides, total cholesterol, Non-HDL cholesterol, HDL cholesterol, the ratio of HDL cholesterol to that of Non-HDL cholesterol, insulin, non-esterified fatty acids, and beta-hydroxy butyric acid. The percent body weight gain and the ratio of liver to body weight is also determined. These are shown as absolute values or as a percent change of the pretreatment values in Table 1.

SMILES	IC50 (primary rat hepatocytes)	% wt. gain (obese female Zucker rats; 100 mg/kg/day)	Glucose, Percent of Pre-treatment (obese female Zucker rats; 100 mg/kg/day)	HDL-C, Percent of Pre-treatment (obese female Zucker rats; 100 mg/kg/day)	Insulin, Percent of Pre-treatment (obese female Zucker rats; 100 mg/kg/day)	Non-HDL-C, Percent of Pre-treatment (obese female Zucker rats; 100 mg/kg/day)	BHA, Percent of Pre-treatment (obese female Zucker rats; 100 mg/kg/day)	NEFA, Percent of Pre-treatment (obese female Zucker rats; 100 mg/kg/day)	HDL-C/non-HDL-C (obese female Zucker rats; 100 mg/kg/day)	TC, Percent of Pre-treatment (obese female Zucker rats; 100 mg/kg/day)	TG, Percent of Pre-treatment (obese female Zucker rats; 100 mg/kg/day)	also measured
CC(C)(CCCCC(O)CCCCC1(C(=O)O)CCC1)C(=O)O (stereo not shown) [A]	12 µM											% wt. gain (obese female Zucker rats; 30 mg/kg/day): 12.3%; Glucose, Percent of Pre-treatment (obese female Zucker rats; 30 mg/kg/day): −1%; HDL-C, Percent of Pre-treatment (obese female Zucker rats; 30 mg/kg/day): 76%; Insulin, Percent of Pre-treatment (obese female Zucker rats; 30 mg/kg/day): −8%; Non-HDL-C, Percent of Pre-treatment (obese female Zucker rats; 30 mg/kg/day): −20%; BHA, Percent of Pre-treatment (obese female Zucker rats; 30 mg/kg/day): 150%; NEFA, Percent of Pre-treatment (obese female Zucker rats; 30 mg/kg/day): −30%; HDL-C/non-HDL-C (obese female Zucker rats; 30 mg/kg/day): 4; TC, Percent of Pre-treatment (obese female Zucker rats; 30 mg/kg/day): 37%; TG, Percent of Pre-treatment (obese female Zucker rats; 30 mg/kg/day): −23%
O=C(O)C1(CCCCCC(O)CCCCCC2(C(=O)O)CC2)CC1 [B]	0.9 µM	4.2%	−24%	54%	−51%	−94%	254%	−23%	153	13%	−91%	
O=C(O)C1(CCCCCC(O)CCCCCC2(C(=O)O)CCCC2)CCCC1 [Compound 6.33, 1-[11-(1-Carboxycyclopentyl)-6-hydroxyundecyl]-1-cyclopentanecarboxylic acid]												melting point: 76 to 77 °C
CC(C)(CCCCC(O)CCCCC1(C(=O)O)CC1)C(=O)O (stereo not shown) [Compound E]	3 µM	10.4%	−2%	162%	2%	1%	223%	−24%	5	101%	−34%	
CC(C)(CCCCCC(O)CCCCCC1(C(=O)O)CC1)C(=O)O (stereo not shown) [D]	1.4 µM	−1.7%	−13%	15%	−70%	−98%	195%	−44%	785	−11%	−97%	
O=C(O)C1(CCCCC(O)CCCCC2(C(=O)O)CC2)CC1 [F]	1.8 µM											
